28 compounds from patent US9382222B2, “Benzyl sulfonamide derivatives as RORc modulators” (Genentech, Inc., priority 2012, dated 2016) can be followed below.

Molecules are shown by their SMILES.

This assay addresses T1, RORc ligand binding domain (Homo sapiens, UniProt P51449).
T1 construct: host or cells: E. coli
T1 sequence (P51449 269-508 limits assumed): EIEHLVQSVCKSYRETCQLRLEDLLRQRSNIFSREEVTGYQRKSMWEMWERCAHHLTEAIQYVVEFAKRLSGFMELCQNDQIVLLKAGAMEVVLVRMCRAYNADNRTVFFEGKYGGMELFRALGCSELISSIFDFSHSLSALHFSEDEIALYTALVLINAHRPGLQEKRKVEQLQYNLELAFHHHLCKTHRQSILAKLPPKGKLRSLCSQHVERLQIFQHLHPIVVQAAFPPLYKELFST
In words: In Vitro RORc Ligand Binding Assay. The conditions noted are these: displacement of 25-[3H]hydroxycholesterol (6 nM), 0.6 ug/mL RORc receptor, 3 h at 25° C. How it is done: In Vitro RORc Ligand Binding Assay This assay was used to determine a compound's potency in inhibiting activity of RORc by determining, Kiapp, IC50, or percent inhibition values. […] On day of the assay, 100 uL of 0.05% CHAPS (in deionized H2O) was added to all wells of the GFB Unifilter plate and allowed soak for 1 h. A wash buffer of 50 mM HEPES (pH 7.4), 150 mM NaCl, and 5 mM MgCl2 was prepared to wash the filter plate. To prepare an assay buffer, BSA was added to the wash buffer to reach 0.01% and DTT was added to reach 1 mM. […] The 20× compound stocks were diluted in DMSO with Assay Buffer 4-fold to reach 5× the final test concentration in 25% DMSO (10 uL compound+30 uL Assay Buffer). Solutions were mixed by aspiration several times with a pipette set on 50 uL volume. For the assay, 10 uL of 5× compound stock solutions in 25% DMSO were added to the assay plate in duplicate. For two point screening, 10 mM stock compound solutions were diluted in DMSO to obtain 200 uM (20× the high test concentration) and then diluted 10-fold further to reach 20 uM (20× the low test concentration). The 20× stocks were diluted 4-fold with Assay Buffer (10 uL compound+30 uL Assay Buffer) to reach 5× the test concentrations (50 uM and 5 uM) and 10 uL were added to two assay plates for the duplicate wells. […] Add 20 uL to all wells to reach 6 nM final concentration in the assay. […] Stock receptor solution was diluted in assay buffer to obtain 1.5 ug/mL in Assay Buffer. 20 uL was added to all wells. For No Receptor samples, 20 uL Assay Buffer was substituted for receptor solution. […] Following addition to the wells, the plates were incubated 3 h at 25° C. Using a Packard Filtermate Harvester, the filter plate were washed 4 times following transfer of the incubated samples. Plates were dry-filtered completely (2 h at 50° C. or overnight at room temperature). 50 uL Microscint 0 was added to all wells and read on Topcount protocol Inverted. […] For NSB wells, 1 uM 25-hydroxycholesterol was also present.
A word on the IC50: it is the concentration that inhibits the measured activity by half. A low value points to higher potency. Regarding `CC(=O)N1CCN(c2ccc(S(=O)(=O)N(Cc3cccc(C(F)(F)F)c3)CC(C)C)cc2)CC1` [Compound 58, 4-(4-Acetyl-piperazin-1-yl)-N-isobutyl-N-(3-trifluoromethyl-benzyl)-benzenesulfonamide], the 50% inhibitory concentration (IC50) is 244 nM.

For `CC(C)CN(Cc1ccc(Cl)cc1)S(=O)(=O)c1ccc(NC2CCN(S(C)(=O)=O)CC2)cc1` [Compound 91, N-(4-Chloro-benzyl)-N-isobutyl-4-(1-methanesulfonyl-piperidin-4-ylamino)-benzenesulfonamide], the concentration for half-maximal inhibition (IC50) worked out at 10 nM.

In turn, `CN(C)S(=O)(=O)N1CCN(c2ccc(S(=O)(=O)N(Cc3ccccc3C(F)(F)F)CC(F)F)cc2)CC1` [Compound 85, 4-{4-[(2,2-Difluoro-ethyl)-(2-trifluoromethyl-benzyl)-sulfamoyl]-phenyl}-piperazine-1-sulfonic acid dimethylamide] came in with an IC50 of 116 nM.

As for `CC(C)CN(c1ccccc1Cl)S(=O)(=O)c1ccc(N2CCN(S(C)(=O)=O)CC2)cc1` [Compound 22, N-(2-Chloro-phenyl)-N-isobutyl-4-(4-methanesulfonyl-piperazin-1-yl)-benzenesulfonamide], the half-inhibitory concentration (IC50) worked out at 87 nM.

`CC(=O)N1CCC(Oc2ccc(S(=O)(=O)N(CC(C)C)c3cccc(Cl)c3)cc2)CC1` [Compound 33, 4-(1-Acetyl-piperidin-4-yloxy)-N-(3-chloro-phenyl)-N-isobutyl-benzenesulfonamide] registered an IC50 of 198 nM.

With `CC(=O)N1CCN(c2ccc(S(=O)(=O)N(Cc3ccccc3C(F)(F)F)C3(C)CCC3)cc2)CC1` [Compound 86, 4-(4-Acetyl-piperazin-1-yl)-N-(1-methyl-cyclobutyl)-N-(2-trifluoromethyl-benzyl)-benzenesulfonamide], the IC50 turned out to be 70 nM. This IC50 is about 2.8-fold lower than that of the compound before.

Compound `CC(C)CN(c1cccc(F)c1F)S(=O)(=O)c1ccc(OC2CCN(S(C)(=O)=O)CC2)cc1` [Compound 49, N-(2,3-Difluoro-phenyl)-N-isobutyl-4-(1-methanesulfonyl-piperidin-4-yloxy)-benzenesulfonamide] showed a concentration for half-maximal inhibition (IC50) of 8 nM.

The compound `CC(C)CN(c1cccc(Cl)c1)S(=O)(=O)c1ccc(O[C@H]2CCCN(S(C)(=O)=O)C2)cc1` [Compound 43, N-(3-Chloro-phenyl)-N-isobutyl-4-((S)-1-methanesulfonyl-piperidin-3-yloxy)-benzenesulfonamide] yielded a 50% inhibitory concentration (IC50) of 281 nM.

Regarding `CC(C)CN(c1cccc(Cl)c1)S(=O)(=O)c1cccc(N2CCN(S(C)(=O)=O)CC2)c1` [Compound 26, N-(3-Chloro-phenyl)-N-isobutyl-3-(4-methanesulfonyl-piperazin-1-yl)-benzenesulfonamide], the IC50 is 414 nM. This IC50 and that of the compound before are within 1.5-fold of each other.

Compound `CC(C)CN(c1ccccc1Cl)S(=O)(=O)c1ccc(N2CCN(S(=O)(=O)N(C)C)CC2)cc1` [Compound 20, 4-{4-[(2-Chloro-phenyl)-isobutyl-sulfamoyl]-phenyl}-piperazine-1-sulfonic acid dimethylamide] registered a half-maximal inhibitory concentration (IC50) of 81 nM. This IC50 is about 5.1-fold lower than that of the compound before.

In turn, `C=C(c1ccccc1)N(CC(C)C)S(=O)(=O)c1ccc(N2CCN(S(C)(=O)=O)CC2)cc1` [Compound 78, N-Isobutyl-4-(4-methanesulfonyl-piperazin-1-yl)-N-(1-phenyl-vinyl)-benzenesulfonamide] displayed a 50% inhibitory concentration (IC50) of 23 nM. This IC50 is about 3.5-fold lower than that of the compound before.

`CC(C)CN(c1cccc(Cl)c1)S(=O)(=O)c1cccc(NC2CCN(S(C)(=O)=O)CC2)c1` [Compound 40, N-(3-Chloro-phenyl)-N-isobutyl-3-(1-methanesulfonyl-piperidin-4-ylamino)-benzenesulfonamide] gave a concentration for half-maximal inhibition (IC50) of 480 nM.

`CS(=O)(=O)N1CCC(Oc2ccc(S(=O)(=O)N(c3cccc(F)c3)C3CCC3)cc2)CC1` [Compound 4, N-Cyclobutyl-N-(3-fluoro-phenyl)-4-(1-methanesulfonyl-piperidin-4-yloxy)-benzenesulfonamide]: the concentration for half-maximal inhibition (IC50) was 29 nM.

For `CC(C)CN(c1cccc(Cl)c1)S(=O)(=O)c1ccc(OC2CCN(S(C)(=O)=O)CC2)cc1` [Compound 34, N-(3-Chloro-phenyl)-N-isobutyl-4-(1-methanesulfonyl-piperidin-4-yloxy)-benzenesulfonamide], the IC50 is 8 nM.

On to `CC(C)CN(c1ccc(F)cc1)S(=O)(=O)c1ccc(OC2CCN(S(C)(=O)=O)CC2)cc1` [Compound 3, N-(4-Fluoro-phenyl)-N-isobutyl-4-(1-methanesulfonyl-piperidin-4-yloxy)-benzenesulfonamide], for which the IC50 is 16 nM.

The compound `CC(C)CN(Cc1ccc(OC(F)(F)F)cc1)S(=O)(=O)c1ccc(NC2CCN(S(C)(=O)=O)CC2)cc1` [Compound 90, N-Isobutyl-4-(1-methanesulfonyl-piperidin-4-ylamino)-N-(4-trifluoromethoxy-benzyl)-benzenesulfonamide] showed a concentration for half-maximal inhibition (IC50) of 11 nM.

Compound `CC(C)CN(Cc1ccccc1C(F)(F)F)S(=O)(=O)c1ccc(N2CCN(S(C)(=O)=O)CC2)cc1F` [Compound 69, 2-Fluoro-N-isobutyl-4-(4-methanesulfonyl-piperazin-1-yl)-N-(2-trifluoromethyl-benzyl)-benzenesulfonamide] registered an IC50 of 20 nM.

With `CC(C)CN(c1cccc(Cl)c1)S(=O)(=O)c1ccc(N2CCC(NS(C)(=O)=O)CC2)cc1` [Compound 23, N-(3-Chloro-phenyl)-N-isobutyl-4-(4-methanesulfonylamino-piperidin-1-yl)-benzenesulfonamide], the IC50 is 169 nM.

The compound `CC(=O)N1CCN(c2ccc(S(=O)(=O)N(Cc3ccccc3C(F)(F)F)C(C)(C)C)cc2)CC1` [Compound 81, 4-(4-Acetyl-piperazin-1-yl)-N-tert-butyl-N-(2-trifluoromethyl-benzyl)-benzenesulfonamide] gave an IC50 of 110 nM. This IC50 is about 1.5-fold lower than that of the compound before.

Consider `CC(C)CN(c1cccc(Cl)c1)S(=O)(=O)c1ccc(N[C@H]2CCCN(S(C)(=O)=O)C2)cc1` [Compound 45, N-(3-Chloro-phenyl)-N-isobutyl-4-((S)-1-methanesulfonyl-piperidin-3-ylamino)-benzenesulfonamide], for which the IC50 was 271 nM.

In the case of `COc1ccc(CN(CC(C)C)S(=O)(=O)c2ccc(N3CCN(S(C)(=O)=O)CC3)cc2)cc1` [Compound 66, N-Isobutyl-4-(4-methanesulfonyl-piperazin-1-yl)-N-(4-methoxy-benzyl)-benzenesulfonamide], the concentration for half-maximal inhibition (IC50) worked out at 79 nM.

As to `CC(C)CN(c1ccccc1C(F)(F)F)S(=O)(=O)c1ccc(NC2CCN(S(C)(=O)=O)CC2)cc1` [Compound 46, N-Isobutyl-4-(1-methanesulfonyl-piperidin-4-ylamino)-N-(2-trifluoromethyl-phenyl)-benzenesulfonamide], the half-maximal inhibitory concentration (IC50) was 33 nM.

As to `CC(C)CN([C@@H](C)c1ccccc1)S(=O)(=O)c1ccc(N2CCN(S(C)(=O)=O)CC2)cc1` [Compound 63, N-Isobutyl-4-(4-methanesulfonyl-piperazin-1-yl)-N-((S)-1-phenyl-ethyl)-benzenesulfonamide], the half-maximal inhibitory concentration (IC50) amounted to 39 nM.

Compound `CC(C)CN(c1ccc(F)cc1)S(=O)(=O)c1ccc(C(=O)N2CCN(S(C)(=O)=O)CC2)cc1` [Compound 53, N-(4-Fluoro-phenyl)-N-isobutyl-4-(4-methanesulfonyl-piperazine-1-carbonyl)-benzenesulfonamide] showed a 50% inhibitory concentration (IC50) of 299 nM.

In the case of `CC(C)CN(Cc1ccccc1C(F)(F)F)S(=O)(=O)c1ccc(N2CCC(C(N)=O)CC2)cc1` [Compound 83, 1-{4-[Isobutyl-(2-trifluoromethyl-benzyl)-sulfamoyl]-phenyl}-piperidine-4-carboxylic acid amide], the IC50 turned out to be 24 nM.

`CC(C)CN(c1ccc(F)cc1F)S(=O)(=O)c1ccc(OC2CCN(S(C)(=O)=O)CC2)cc1` [Compound 50, N-(2,4-Difluoro-phenyl)-N-isobutyl-4-(1-methanesulfonyl-piperidin-4-yloxy)-benzenesulfonamide] showed a half-inhibitory concentration (IC50) of 9 nM.

In the case of `CS(=O)(=O)N1CCC(Oc2ccc(S(=O)(=O)N(Cc3ccccc3C(F)(F)F)C3CCC3)cc2)CC1` [Compound 89, N-Cyclobutyl-4-(1-methanesulfonyl-piperidin-4-yloxy)-N-(2-trifluoromethyl-benzyl)-benzenesulfonamide], the IC50 was 9 nM.

`CC(C)CN(Cc1ccc(OC(F)F)cc1)S(=O)(=O)c1ccc(N2CCN(S(C)(=O)=O)CC2)cc1` [Compound 72, N-(4-Difluoromethoxy-benzyl)-N-isobutyl-4-(4-methanesulfonyl-piperazin-1-yl)-benzenesulfonamide] gave an IC50 of 83 nM.
